Where two headings read alike, the source gives them in different places.
Columns and labels:
[1] = tested on: serum antibodies raised against efavirenz-KLH conjugate; test: Competitive inhibition ELISA: binding of mouse serum antibody to N-linked BSA-efavirenz conjugate; parameters: species or system mice; conditions: free drug, serum of one mouse, OD450, FIG. 3
Method: The sera were titered for antibody activity via an antigen specific ELISA. Wells of a styrene 96-well plate were coated with efavirenz N-linked BSA conjugate 5 by placing 50 μL of a 0.1 μg/mL efavirenz-BSA conjugate solution into 0.1 M potassium carbonate, pH 9.2, in the wells and incubating the covered plate at 37° C. for 1 hour. The solution was removed, and the wells were immediately filled with a post coat solution consisting of 1% gelatin hydrolysate, 2% sucrose, 0.1 M Tris buffer, pH 7.4, and 0.15% TWEEN 20 (all reagents from Sigma Chemical Co.), covered and incubated as above. Subsequently, the plates were rinsed once with 2% sucrose and air-dried. Once dry, the plates were sealed into aluminum foil clad plastic bags with a desiccant and stored at 4° C. until used.
Titering consisted of preparing an initial 1:100 dilution of the sera in PBS-T, then seven serial 1:3 dilutions. […] Color that developed was read in a microplate reader equipped with a 450 nm filter. The color intensities were plotted versus the final serum dilutions, and the dilution point at which 50% of the maximum reading was obtained was recorded.
For determining competitive inhibition, plates treated as above were used. […] Serum dilutions of twice the concentration determined above were then prepared, and 25 μL was placed into each well of the column. […]

HIV [2] = conditions: cited from earlier work
[3] = cited from earlier work
HIV [4] = conditions: cited from earlier work; remark: listed apart in the source
[5] = taken with other anti-HIV medicines

## O=C1Nc2ccc(Cl)cc2[C@@](C#CC2CC2)(C(F)(F)F)O1 [efavirenz]
[1]
  competitive inhibition of binding of serum antibodies to the drug conjugate absorbed to the microplate: confers a competitive inhibition of binding
HIV [2]; efavirenz
  amount of HIV in the blood (viral load): lower the amount of HIV in the blood
HIV [2]; [5]
  CD4 cell count: increase their CD4 cell count
  patients' viral load: reduce patients' viral load
[3]; efavirenz levels >4000 μg/L compared with 1000-4000 μg/L
  frequency of CNS toxicity at high versus mid plasma levels: approximately three times more frequent
[3]; human, in vivo
  patients reporting central nervous system (CNS) side effects: 20-40%
  patients who discontinue therapy because of severity or persistence of CNS side effects: about 4%
HIV [4]; patients with low plasma levels of efavirenz, <1000 μg/L, 85 total patients
  virological failure, share of patients: 50%
HIV [4]; patients with plasma levels of efavirenz 1000-4000 μg/L or more than 4000 μg/L
  virological failure, share of patients: 18-22%

Reference: patent US7271252B2, “Reagents for detecting efavirenz” (Roche Diagnostics Operations, Inc., priority 2003, dated 2007)
